Columns and labels:
[1] = target: T1, chitin synthase 2 of Saccharomyces cerevisiae ECY38-38A(pAS6) (Saccharomyces cerevisiae, UniProt P14180); test: In vitro enzyme assay for chitin synthase 2 of Saccharomyces cerevisiae (enzyme 2); type: biochemical; conditions: relative to polyoxin D (50% inhibitory activity = value 5)
T1 construct: made in house; host or cells: Saccharomyces cerevisiae ECY38-38A (chs1-23 chs2::LEU2 cal1/csd2) carrying plasmid pAS6, grown in galactose medium; 130,000 x g membrane pellet
How it was run: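 Values are scores: 5 means 50% inhibition at the same concentration as polyoxin D, lower scores 2- to 16-fold higher concentration, higher scores ½ to ⅛. Radiolabel from 1.1 mM UDP-[14C]-GlcNAc was incorporated into TCA-insoluble chitin over 90 min at 30 °C (pH 7.5 Tris, 2 mM Co2+). The enzyme was a trypsin-activated membrane fraction from CHS2-only S. cerevisiae ECY38-38A(pAS6).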

[2] = target: T2, chitin synthase 1 of Candida albicans chs2 Δ chs 3 Δ (Candida albicans, UniProt P23316); test: In vitro enzyme assay for chitin synthase 1 of Candida albicans (enzyme 1); type: biochemical; conditions: relative to polyoxin D (50% inhibitory activity = value 5)
T2 construct: Crude enzyme was prepared using the Candida albicans chs2 Δ chs 3 Δ mutant; endogenous in cells; host or cells: Candida albicans chs2Δ/chs2Δ chs3Δ/chs3Δ mutant; 130,000 x g membrane pellet
How it was run: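 Trypsin-activated crude membrane chitin synthase 1 from C. albicans chs2Δ chs3Δ was incubated 90 min at 30 °C with 1.1 mM UDP-[14C]GlcNAc and 2 mM cobalt acetate in Tris-HCl pH 7.5. Filtered TCA precipitate was counted by scintillation; values are scores 1–8 against polyoxin D (5 = same concentration).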

Candida krusei ATCC 6258 = test: In vitro antifungal activity (MIC), NCCLS method; type: cell-based; conditions: for MIC (minimum inhibitory concentration): 48 hours
How it was run: (§1)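 Broth MIC by NCCLS two-fold dilution, final inoculum 5×10^2 to 2.5×10^3 cell/mL. Candida and Mucor strains incubated 48 hours.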

[3] = tested on: Candida glabrata ATCC 48435; test: In vitro antifungal activity (MIC), NCCLS method; type: cell-based
How it was run: as §1

[4] = tested on: Mucor ramosissimus ATCC 90286; test: In vitro antifungal activity (MIC), NCCLS method; type: cell-based; conditions: for MIC (minimum inhibitory concentration): 48 hours
How it was run: as §1

[5] = tested on: Candida albicans A207 (clinical isolate); test: In vitro antifungal activity (MIC), NCCLS method; type: cell-based; conditions: 48 hours
How it was run: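 Test samples were serially diluted two-fold, then inoculated with fungus to a final cell density of 5×10^2 to 2.5×10^3 cell/mL, following the NCCLS method. Plates were cultured for 48 hours and the minimum inhibitory concentration recorded.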

[6] = tested on: Candida tropicalis ATCC 13803; test: In vitro antifungal activity (MIC), NCCLS method; type: cell-based; conditions: for MIC (minimum inhibitory concentration): 48 hours
How it was run: as §1

[7] = tested on: Aspergillus flavus ATCC 64025; test: In vitro antifungal activity (MIC), NCCLS method; type: cell-based; conditions: for MIC (minimum inhibitory concentration): 48 hours
How it was run: (§2)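 MIC read as the lowest concentration inhibiting growth after 48 hours of culture. Setup follows NCCLS: compound diluted two-fold and inoculated at 5×10^2 to 2.5×10^3 cell/mL final.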

[8] = tested on: Candida lusitaniae ATCC 42720; test: In vitro antifungal activity (MIC), NCCLS method; type: cell-based; conditions: for MIC (minimum inhibitory concentration): 48 hours
How it was run: as §1

[9] = tested on: Candida albicans ATCC 10231; test: In vitro antifungal activity (MIC), NCCLS method; type: cell-based; conditions: for MIC (minimum inhibitory concentration): 48 hours
How it was run: as §1

[10] = tested on: Aspergillus terreus ATCC 46941; test: In vitro antifungal activity (MIC), NCCLS method; type: cell-based; conditions: for MIC (minimum inhibitory concentration): 48 hours
How it was run: as §2

[11] = tested on: Candida parapsilosis ATCC 34136; test: In vitro antifungal activity (MIC), NCCLS method; type: cell-based
How it was run: as §1

[12] = tested on: Aspergillus fumigatus ATCC 16424; test: In vitro antifungal activity (MIC), NCCLS method; type: cell-based; conditions: for MIC (minimum inhibitory concentration): 48 hours
How it was run: as §2

[13] = tested on: Cryptococcus neoformans ATCC 36556; test: In vitro antifungal activity (MIC), NCCLS method; type: cell-based; conditions: 72 hours; for MIC (minimum inhibitory concentration): RPMI 1640 medium
How it was run: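 Broth microdilution per NCCLS: two-fold serial dilutions of test compound inoculated with fungal suspension at a final 5×10^2 to 2.5×10^3 cell/mL. Strains other than Cryptococcus neoformans were incubated 48 hours before MIC reading.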

[14] = Candida glabrata ATCC 48435, 48 hours
[15] = Candida parapsilosis ATCC 34136, 48 hours

T1 sequence (P14180 whole entry): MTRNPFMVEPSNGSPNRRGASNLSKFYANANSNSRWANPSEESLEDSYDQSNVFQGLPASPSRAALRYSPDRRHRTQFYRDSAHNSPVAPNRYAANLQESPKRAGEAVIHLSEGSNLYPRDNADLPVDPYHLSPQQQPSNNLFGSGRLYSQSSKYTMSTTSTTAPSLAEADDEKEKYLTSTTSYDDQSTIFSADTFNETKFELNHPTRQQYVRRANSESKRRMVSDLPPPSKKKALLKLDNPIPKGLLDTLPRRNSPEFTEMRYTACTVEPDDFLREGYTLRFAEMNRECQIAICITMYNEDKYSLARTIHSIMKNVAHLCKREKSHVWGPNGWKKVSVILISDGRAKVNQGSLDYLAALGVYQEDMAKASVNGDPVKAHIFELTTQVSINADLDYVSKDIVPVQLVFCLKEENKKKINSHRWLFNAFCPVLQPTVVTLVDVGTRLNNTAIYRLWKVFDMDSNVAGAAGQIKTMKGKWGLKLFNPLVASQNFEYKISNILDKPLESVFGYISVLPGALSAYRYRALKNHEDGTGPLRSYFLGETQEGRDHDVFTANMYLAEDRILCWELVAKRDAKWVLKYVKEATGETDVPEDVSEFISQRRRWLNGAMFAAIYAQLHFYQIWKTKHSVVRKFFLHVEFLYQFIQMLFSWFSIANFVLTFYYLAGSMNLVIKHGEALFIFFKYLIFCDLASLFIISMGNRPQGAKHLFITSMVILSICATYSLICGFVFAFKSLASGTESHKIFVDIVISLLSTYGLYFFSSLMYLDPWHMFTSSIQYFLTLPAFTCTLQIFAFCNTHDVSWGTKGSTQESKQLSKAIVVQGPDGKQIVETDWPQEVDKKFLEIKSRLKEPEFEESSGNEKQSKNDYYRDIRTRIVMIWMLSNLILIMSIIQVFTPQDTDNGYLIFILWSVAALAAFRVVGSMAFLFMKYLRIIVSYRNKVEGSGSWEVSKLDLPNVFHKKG
T2 sequence (P23316 whole entry, stated change not applied): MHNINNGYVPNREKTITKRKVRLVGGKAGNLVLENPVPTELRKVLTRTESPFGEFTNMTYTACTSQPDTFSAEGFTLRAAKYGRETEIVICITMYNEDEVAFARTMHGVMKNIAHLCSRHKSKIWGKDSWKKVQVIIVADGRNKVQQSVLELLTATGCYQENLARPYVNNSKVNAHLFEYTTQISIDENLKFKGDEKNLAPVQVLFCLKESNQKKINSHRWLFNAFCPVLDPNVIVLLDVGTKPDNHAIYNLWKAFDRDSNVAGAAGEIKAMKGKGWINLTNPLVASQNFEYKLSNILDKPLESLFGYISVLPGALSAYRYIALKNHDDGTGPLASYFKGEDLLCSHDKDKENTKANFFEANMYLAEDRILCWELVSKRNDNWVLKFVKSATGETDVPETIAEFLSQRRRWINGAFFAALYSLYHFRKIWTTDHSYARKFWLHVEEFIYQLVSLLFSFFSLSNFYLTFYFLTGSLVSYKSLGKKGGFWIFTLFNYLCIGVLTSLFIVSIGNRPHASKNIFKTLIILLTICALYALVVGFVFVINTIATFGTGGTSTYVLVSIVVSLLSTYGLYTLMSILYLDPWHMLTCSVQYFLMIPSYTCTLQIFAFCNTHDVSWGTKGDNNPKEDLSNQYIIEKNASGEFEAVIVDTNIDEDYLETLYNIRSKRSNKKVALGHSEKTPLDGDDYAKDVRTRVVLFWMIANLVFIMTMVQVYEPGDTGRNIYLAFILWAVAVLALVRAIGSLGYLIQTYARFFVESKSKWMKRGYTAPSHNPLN

Compound | Relative activity Enzyme 2 [1] | Relative activity Enzyme 1 [2] | MIC (minimum inhibitory concentration) (Candida krusei ATCC 6258) [µg/mL] | MIC (minimum inhibitory concentration) [3, 14] [µg/mL] | MIC (minimum inhibitory concentration) [4] [µg/mL] | MIC (minimum inhibitory concentration) [5] [µg/mL] | MIC (minimum inhibitory concentration) [6] [µg/mL] | MIC (minimum inhibitory concentration) [7] [µg/mL] | MIC (minimum inhibitory concentration) [8] [µg/mL] | MIC (minimum inhibitory concentration) [9] [µg/mL] | MIC (minimum inhibitory concentration) [10] [µg/mL] | MIC (minimum inhibitory concentration) [11, 15] [µg/mL] | MIC (minimum inhibitory concentration) [12] [µg/mL] | MIC (minimum inhibitory concentration) [13] [µg/mL] | other results
13-(4-tert-Butylbenzyl)-9-O-(4-isopropylbenzyl)berberrubine chloride [Compound No. 48] | 5 (A compound having the same inhibitory activity as that of polyoxin D at the same concentration was given the value 5) | 2 (Compounds having the inhibitory activity at 2-fold, 4-fold, 8-fold and 16-fold higher concentrations than that of polyoxin D were given the values of 4, 3, 2 and 1, respectively) | 2 | 2 | 8 | 1 | 1 | 8 | 4 | 1 | 8 | 8 | 4 | 2 | 
COc1ccc2c(Cc3ccc(C(C)(C)C)cc3)c3[n+](cc2c1OC)CCc1cc2c(cc1-3)OCO2.[Cl-] [Comparative compound 1, reference compound] | 3 (Compounds having the inhibitory activity at 2-fold, 4-fold, 8-fold and 16-fold higher concentrations than that of polyoxin D were given the values of 4, 3, 2 and 1, respectively) | 1 (Compounds having the inhibitory activity at 2-fold, 4-fold, 8-fold and 16-fold higher concentrations than that of polyoxin D were given the values of 4, 3, 2 and 1, respectively) |  |  |  |  |  |  |  |  |  |  |  |  | MIC (Candida krusei ATCC 6258; Pichia kudriavzevii, ATCC6258, 48 hours, read-out: MIC (minimum inhibitory concentration)): 16 µg/mL; antifungal activities (in words) ([3]; Candida glabrata): no antifungal activities; MIC ([3]; Nakaseomyces glabratus, ATCC48435, Candida glabrata ATCC 48435, 48 hours, read-out: MIC (minimum inhibitory concentration)): > 128 µg/mL; MIC ([4]; ATCC90286, 48 hours, read-out: MIC (minimum inhibitory concentration)): 128 µg/mL; MIC ([5]; read-out: MIC (minimum inhibitory concentration)): 8 µg/mL; MIC ([6]; ATCC13803, 48 hours, read-out: MIC (minimum inhibitory concentration)): 2 µg/mL; MIC ([7]; ATCC64025, 48 hours, read-out: MIC (minimum inhibitory concentration)): > 128 µg/mL; MIC ([8]; Clavispora lusitaniae, ATCC42720, 48 hours, read-out: MIC (minimum inhibitory concentration)): 8 µg/mL; MIC ([9]; ATCC10231, 48 hours, read-out: MIC (minimum inhibitory concentration)): 4 µg/mL; MIC ([10]; ATCC46941, 48 hours, read-out: MIC (minimum inhibitory concentration)): > 128 µg/mL; antifungal activities (in words) ([11]; Candida parapsilosis): no antifungal activities; MIC ([11]; Lodderomyces parapsilosis, ATCC34136, Candida parapsilosis ATCC 34136, 48 hours, read-out: MIC (minimum inhibitory concentration)): > 128 µg/mL; MIC ([12]; ATCC16424, 48 hours, read-out: MIC (minimum inhibitory concentration)): 128 µg/mL; MIC ([13]; ATCC36556, RPMI 1640 medium, read-out: MIC (minimum inhibitory concentration)): 8 µg/mL
13-(4-Isopropylbenzyl)-9-O-octylberberrubine iodide [Compound No. 20] | 5 (A compound having the same inhibitory activity as that of polyoxin D at the same concentration was given the value 5) | 3 (Compounds having the inhibitory activity at 2-fold, 4-fold, 8-fold and 16-fold higher concentrations than that of polyoxin D were given the values of 4, 3, 2 and 1, respectively) | 1 | 2 | 2 | 0.25 | 0.125 | 4 | 0.5 | 0.25 | 4 | 2 | 2 | 1 | 
13-(4-tert-Butylbenzyl)-9-O-(6-chlorohexyl)berberrubine chloride [Compound No. 44] | 6 (compounds having the inhibitory activity at ½, ¼ and ⅛ lower concentrations than that of polyoxin D were given the values of 6, 7 and 8, respectively) | 2 (Compounds having the inhibitory activity at 2-fold, 4-fold, 8-fold and 16-fold higher concentrations than that of polyoxin D were given the values of 4, 3, 2 and 1, respectively) | 1 | 2 | 4 | 0.5 | 0.5 | 8 | 2 | 0.5 | 8 | 2 | 2 | 1 | 
13-(4-tert-Butylbenzyl)-9-O-allylberberrubine iodide [Compound No. 13] | 5 (A compound having the same inhibitory activity as that of polyoxin D at the same concentration was given the value 5) | 2 (Compounds having the inhibitory activity at 2-fold, 4-fold, 8-fold and 16-fold higher concentrations than that of polyoxin D were given the values of 4, 3, 2 and 1, respectively) | 2 | 8 | 4 | 1 | 1 | 8 | 2 | 1 | 8 | 4 | 8 | 2 | 
13-(4-Isopropylbenzyl)-9-O-(4-tert-butylbenzyl)berberrubine bromide [Compound No. 25] | 5 (A compound having the same inhibitory activity as that of polyoxin D at the same concentration was given the value 5) | 2 (Compounds having the inhibitory activity at 2-fold, 4-fold, 8-fold and 16-fold higher concentrations than that of polyoxin D were given the values of 4, 3, 2 and 1, respectively) | 4 | 4 | 8 | 1 | 1 | 8 | 4 | 1 | 8 | 8 | 4 | 2 | 
